Assay results published in PubChem BioAssay (NCI).
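Compound exposure: 48 hours, 5 concentrations, 96-well plates. At the TGI there is no net growth.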

How the values were obtained:
Assay in all cases: NCI anticancer screen, dose series, 48 h
HOP-62 NSCLC = test system: HOP-62 NSCLC
SR leukemia = test system: SR leukemia
HCT-15 colon = test system: HCT-15 colon
SNB-75 CNS = test system: SNB-75 CNS
M14 melanoma = test system: M14 melanoma
SF-539 CNS = test system: SF-539 CNS
UACC-257 melanoma = test system: UACC-257 melanoma
OVCAR-4 ovarian = test system: OVCAR-4 ovarian
T-47D breast = test system: T-47D breast
SK-MEL-28 melanoma = test system: SK-MEL-28 melanoma
MCF7 breast = test system: MCF7 breast
SN12C renal = test system: SN12C renal
NCI-H23 lung = test system: NCI-H23 lung
OVCAR-3 ovarian = test system: OVCAR-3 ovarian
MDA-MB-231 breast = test system: MDA-MB-231 breast
HOP-92 NSCLC = test system: HOP-92 NSCLC
RXF 393 renal = test system: RXF 393 renal
MALME-3M melanoma = test system: MALME-3M melanoma
A498 renal = test system: A498 renal

SMILES	TGI (HOP-62 NSCLC)	TGI (SR leukemia)	TGI (HCT-15 colon)	TGI (SNB-75 CNS)	TGI (M14 melanoma)	TGI (SF-539 CNS)	TGI (UACC-257 melanoma)	TGI (OVCAR-4 ovarian)	TGI (T-47D breast)	TGI (SK-MEL-28 melanoma)	TGI (MCF7 breast)	TGI (SN12C renal)	TGI (NCI-H23 lung)	TGI (OVCAR-3 ovarian)	TGI (MDA-MB-231 breast)	TGI (HOP-92 NSCLC)	TGI (RXF 393 renal)	TGI (MALME-3M melanoma)	TGI (A498 renal)
COc1cc(C2c3cc4c(cc3[C@@H](Nc3ccccc3)C3CO[C@@H](OC)[C@H]23)OCO4)cc(OC)c1O (some centres not stated)	> 25 µM	22.6 µM	> 25 µM	> 25 µM	> 25 µM	12.1 µM	> 25 µM	> 25 µM	> 25 µM	> 25 µM	> 25 µM	> 25 µM							
C1=C2C3=[N+](CCCC3)CC2Cc2ccsc21 (configuration not stated)	> 100 µM		> 100 µM	> 100 µM	> 100 µM		> 100 µM	> 100 µM	> 100 µM	> 100 µM	> 100 µM	> 100 µM	> 100 µM	> 100 µM	> 100 µM	> 100 µM	> 100 µM	> 100 µM	> 100 µM
CC1=CC(=O)NCCN1C	> 100 µM	> 100 µM	> 100 µM	> 100 µM	> 100 µM	> 100 µM	> 100 µM	> 100 µM		> 100 µM		> 100 µM	> 100 µM	> 100 µM		> 100 µM	> 100 µM	> 100 µM	> 100 µM
CC(=O)O[C@@H]1C=C(C)[C@H](CBr)O[C@@]2(C)CC[C@H](Br)C(C)(C)[C@H]12	> 100 µM	> 100 µM	> 100 µM	> 100 µM	> 100 µM	> 100 µM	> 100 µM	> 100 µM		> 100 µM	> 100 µM	> 100 µM	> 100 µM		> 100 µM	> 100 µM	> 100 µM		> 100 µM
O=C1CCC(c2ccccc2)C(O)(C(=O)O)C1 (configuration not stated)	> 100 µM	> 100 µM	> 100 µM	> 100 µM	> 100 µM	> 100 µM	> 100 µM	> 100 µM		> 100 µM		> 100 µM	> 100 µM	> 100 µM		> 100 µM		> 100 µM	> 100 µM
COc1cccc(C2c3cc4c(cc3OC(N3CCCC3)C2C)OCO4)c1 (configuration not stated)	19.8 µM	21.4 µM	> 100 µM	81 µM	21.1 µM	24.9 µM	52.3 µM		70.9 µM	32.9 µM	51.5 µM	> 100 µM	> 100 µM	28.6 µM		12.6 µM			
CCCCCCCCCCCCCCCCCc1cccc(OCOCCOC)c1CO	> 100 µM	> 100 µM	> 100 µM	> 100 µM	> 100 µM	> 100 µM	> 100 µM	> 100 µM		> 100 µM	> 100 µM		> 100 µM	> 100 µM	> 100 µM	> 100 µM	> 100 µM	> 100 µM	> 100 µM
CSc1ccc(C2C(Cl)C(=O)N2NC(=O)c2c(Cl)c(Cl)c(Cl)c(Cl)c2-c2nc3ccccc3[nH]2)cc1 (configuration not stated)	> 100 µM	> 100 µM	60.4 µM	35.4 µM	56.7 µM	53.4 µM	51.3 µM		12.3 µM	44.4 µM	> 100 µM	37 µM	43.1 µM	50.7 µM		25.1 µM	5.01 µM	39.5 µM	72.1 µM
CO/N=C(\C(=O)Nc1cncs1)c1csc(NC(c2ccccc2)(c2ccccc2)c2ccccc2)n1	> 10 µM	> 10 µM	> 10 µM	> 10 µM	> 10 µM	> 10 µM	> 10 µM	> 10 µM	> 10 µM	> 10 µM	> 10 µM	> 10 µM	> 10 µM	> 10 µM		> 10 µM	> 10 µM	> 10 µM	> 10 µM
CN(C)/N=C(\CCN1CCCC1)CC(c1ccccc1)c1c(O)c2ccccc2oc1=O (configuration not stated)	> 100 µM			> 100 µM	> 100 µM	> 100 µM	> 100 µM	> 100 µM		> 100 µM		> 100 µM	> 100 µM	> 100 µM		> 100 µM	> 100 µM	> 100 µM	
N#CC1=C(N2CCCC2)NC(=O)CC1=O	> 100 µM	> 100 µM	> 100 µM		> 100 µM	> 100 µM	> 100 µM	> 100 µM	> 100 µM	> 100 µM		> 100 µM	> 100 µM	> 100 µM	> 100 µM	> 100 µM	> 100 µM	> 100 µM	> 100 µM
CC1=CC(=O)NP(=O)(Oc2ccc(C)cc2)N1 (configuration not stated)	> 100 µM	> 100 µM	> 100 µM	> 100 µM	> 100 µM	> 100 µM	> 100 µM	> 100 µM		> 100 µM		> 100 µM	> 100 µM	> 100 µM		> 100 µM		> 100 µM	> 100 µM
CCCCn1c(C)c(C(=O)OCC)c2cc(OCc3ccc(C(=O)Nn4c(C)ccc4C)cc3)c(Br)cc21	> 100 µM	> 100 µM	> 100 µM	> 100 µM	> 100 µM	> 100 µM	> 100 µM	> 100 µM	> 100 µM	> 100 µM	> 100 µM	> 100 µM	> 100 µM	> 100 µM		> 100 µM		> 100 µM	> 100 µM
Cc1cc(=O)[nH]c(NNC(C#N)c2ccc(O)cc2)n1 (configuration not stated)	> 100 µM	> 100 µM	> 100 µM	> 100 µM	> 100 µM	> 100 µM	> 100 µM	> 100 µM		> 100 µM		> 100 µM	> 100 µM	> 100 µM		> 100 µM	> 100 µM	> 100 µM	
O=P(c1ccccc1)(c1ccccc1)C(NCc1ccccc1)c1ccc(F)cc1 (configuration not stated)	42.6 µM	49.5 µM	28.7 µM	48.3 µM	27.8 µM	36.2 µM	34.9 µM	92.6 µM	60.7 µM	28.9 µM		36.6 µM	31.3 µM	27.6 µM	26.1 µM	26.6 µM	28.3 µM	34.6 µM	32 µM
S=C(/N=c1/sc(Nc2ccccc2)nc2sc3c(c12)CCCC3)Nc1ccccc1	> 62.5 µM	> 62.5 µM	> 62.5 µM				> 62.5 µM	> 62.5 µM		> 62.5 µM	> 62.5 µM	> 62.5 µM	> 62.5 µM	> 62.5 µM	> 62.5 µM	> 62.5 µM	> 62.5 µM	> 62.5 µM	> 62.5 µM
COc1ccc2c(c1)OCc1c-2oc2ccccc2c1=O	> 100 µM	> 100 µM	> 100 µM	92.4 µM	> 100 µM	> 100 µM	> 100 µM				> 100 µM	> 100 µM		> 100 µM	> 100 µM	> 100 µM		> 100 µM	> 100 µM
O=C1c2ccccc2S[C@@H](O)[C@@H]2CCCN12	> 100 µM	> 100 µM	> 100 µM		> 100 µM	> 100 µM	> 100 µM			> 100 µM		> 100 µM	> 100 µM	> 100 µM		> 100 µM	> 100 µM	> 100 µM	
COC(=O)CCC(=O)NC1c2cccc3cccc(c23)Cn2c(=O)n(C)c(=O)n21 (configuration not stated)	> 100 µM	> 100 µM	> 100 µM	> 100 µM	> 100 µM	> 100 µM	> 100 µM	> 100 µM		> 100 µM	> 100 µM	> 100 µM	> 100 µM	> 100 µM	> 100 µM	> 100 µM	> 100 µM	> 100 µM	
O=C1NC(Nc2cccc(Cl)c2)=N/C1=C\c1ccc(Cl)c(Cl)c1	23.4 µM	7.37 µM	18.6 µM	26.6 µM	14.9 µM	22.2 µM	22.2 µM	5.49 µM	14.2 µM	32.1 µM	11.1 µM	5.57 µM	14.1 µM	19.7 µM		11.4 µM	10.4 µM	27.8 µM	16.3 µM
O=[N+]([O-])C(C(Cl)=C(Cl)Cl)=C(N1CCOCC1)N1CCOCC1	> 100 µM		> 100 µM	> 100 µM	> 100 µM	> 100 µM	> 100 µM	> 100 µM	> 100 µM	> 100 µM		> 100 µM	> 100 µM	> 100 µM	> 100 µM		> 100 µM	> 100 µM	> 100 µM
N#[O+].O=S(=O)([O-])[O-].[NH2-].[NH2-].[NH2-].[NH2-].[NH2-].[Ru+5]		> 100 µM	> 100 µM	> 100 µM		> 100 µM	> 100 µM			> 100 µM		> 100 µM	> 100 µM	> 100 µM		> 100 µM	> 100 µM	27.7 µM	> 100 µM
CCOC(=O)Cn1sc2ncc([N+](=O)[O-])cc2c1=O	30 µM		31.2 µM	89.1 µM		38.5 µM	31.6 µM	38 µM	37.5 µM	28.6 µM	35.3 µM	31.6 µM	39.3 µM	33.4 µM	29.3 µM	26.9 µM	35.4 µM	33.9 µM	> 100 µM
Cc1oc2nc(N(C)C)nc(Cl)c2c1C	> 100 µM		> 100 µM	> 100 µM	> 100 µM	> 100 µM	> 100 µM	> 100 µM	> 100 µM	> 100 µM		> 100 µM	> 100 µM	> 100 µM	> 100 µM	> 100 µM	> 100 µM		> 100 µM
CSc1nc(Cl)c2c(n1)Sc1nc3cc4c(cc3n1C2O)OCO4 (configuration not stated)	16.7 µM		> 100 µM	> 100 µM	> 43.9 µM	0.327 µM	> 100 µM	> 100 µM	> 100 µM	> 100 µM	> 100 µM	32.4 µM	> 100 µM	7.3 µM	> 83.3 µM		> 51.9 µM	63.9 µM	40.4 µM
Cn1c(=O)c2c(nc(NCCCCl)n2CC(=O)NCCCCl)n(C)c1=O	> 100 µM		> 100 µM	> 100 µM	> 100 µM		> 100 µM	> 100 µM	> 100 µM	> 100 µM		> 100 µM	> 100 µM	> 100 µM	> 100 µM	> 100 µM	> 100 µM		> 100 µM
CCOC(=O)CC(NC(=O)c1nc[nH]c1[N+](=O)[O-])C(=O)OCC (configuration not stated)	> 100 µM	> 100 µM	> 100 µM	> 100 µM	> 100 µM	> 100 µM	> 100 µM	> 100 µM		> 100 µM		> 100 µM	49.8 µM	> 100 µM				> 100 µM	> 100 µM
O=C(CC(=O)n1nc(-c2ccccc2)c(N=Nc2ccc(Cl)cc2)c1-c1ccccc1)Nc1cccc(Cl)c1	> 100 µM	> 100 µM	> 100 µM	> 100 µM	> 100 µM		> 100 µM		> 100 µM	> 100 µM		> 100 µM	> 100 µM		> 100 µM	> 100 µM	> 100 µM	> 100 µM	> 100 µM
Cc1cc(O)c(/C=N/C(=S)NCCc2ccccc2)c(=O)o1	> 100 µM		> 100 µM	> 100 µM	> 100 µM	> 100 µM	> 100 µM	> 100 µM	> 100 µM	> 100 µM	> 100 µM	> 100 µM	> 100 µM	> 100 µM	> 100 µM	> 100 µM			
